Measured values published in US20260216198A1, “GPR35 MODULATORS” (ThirtyFiveBio Limited, priority 2023, published 2026).

target: T1, GPR35 (Homo sapiens, UniProt Q9HC97); assay: cellular GPR35 phospho-ERK HTRF assay (inhibition of lodoxamide-induced phospho-ERK signal); assay type: cell-based; conditions: GPR35-CHO-K1-mt aequorin-Gα16 cell line; agonist lodoxamide at EC80; read-out: Activity Group (IC50, inhibition of GPR35 agonist-induced phospho-ERK signal)
T1 construct: expressed in transfected cells; host or cells: CHO-K1 cells co-expressing mitochondrial aequorin and Gα16
T1 sequence (Q9HC97 whole entry): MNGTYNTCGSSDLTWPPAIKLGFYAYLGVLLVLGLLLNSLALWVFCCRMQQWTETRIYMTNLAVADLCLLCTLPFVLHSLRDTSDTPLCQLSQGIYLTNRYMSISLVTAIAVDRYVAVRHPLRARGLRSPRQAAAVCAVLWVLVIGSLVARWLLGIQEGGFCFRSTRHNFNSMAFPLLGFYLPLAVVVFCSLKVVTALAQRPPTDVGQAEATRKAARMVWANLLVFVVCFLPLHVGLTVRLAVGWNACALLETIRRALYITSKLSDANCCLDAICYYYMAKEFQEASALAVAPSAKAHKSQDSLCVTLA
Excerpt: (§1) The functional GPR35 assay as described in the accompanying examples measures the ability of GPR35 modulators to inhibit a GPR35 agonist-induced phospho-ERK signal. This is expressed as the concentration of modulator required to reduce the phospho-ERK signal by 50 percent, i.e. the IC50; the signal window being defined as the difference between agonist plus modulator vehicle (no modulator) and agonist vehicle (no agonist) controls.
as §1, with “functional” for “functional GPR35”, “assay” for “assay as”, “described” for “described in the accompanying examples”
This assay is a cellular GPR35 phospho-ERK homogeneous time resolved fluorescence (HTRF) assay using the GPR35-CHO-K1-mt aequorin-Gα16 cell line. Upon activation of GPR35 with the agonist lodoxamide at EC80 concentration, ERK 1/2 is phosphorylated, and after lysis of the cell membrane, phospho-ERK1/2 (Thr202/Tyr204) is detected in a sandwich assay using two different specific antibodies, one labelled with Eu^3+-cryptate (donor) and the second with d2 (acceptor). When the dyes are in proximity, the excitation of the donor with a light source (laser or flash lamp) triggers a Fluorescence Resonance Energy Transfer (FRET) towards the acceptor, resulting in specific acceptor fluorescence (at 665 nm). The specific signal is directly proportional to the amount of phospho-ERK1/2 (Thr202/Tyr204) in the sample. Compounds that interfere with the levels of phospho-ERK1/2 (Thr202/Tyr204) will result in a low HTRF signal.

| IC50 [nM] | SMILES |
| --- | --- |
| 1000 to 10000 | O=C(Nc1ccc(OCCc2ccccc2)cc1)c1cccc(-c2ccnc(C(=O)O)c2)c1 [Example 21, 4-(3-((4-Phenethoxyphenyl)carbamoyl)phenyl)picolinic acid] |
| 1000 to 10000 | Cc1ncc(-c2cncc(C(=O)Nc3ccc(OCCc4ccccc4)cc3)c2)cc1C(=O)O [Example 51, 6-Methyl-5′-((4-phenethoxyphenyl)carbamoyl)-[3,3′-bipyridine]-5-carboxylic acid] |
| < 1000 | O=C(O)c1cnc(F)c(-c2cccc(C(=O)Nc3ccc(OCCc4ccccc4)cc3)c2)c1 [Example 65, 6-Fluoro-5-[3-[[4-(2-phenylethoxy)phenyl]carbamoyl]phenyl]pyridine-3-carboxylic acid] |
| < 1000 | Cc1ncc(-c2ccc(F)c(C(=O)Nc3ccc(COCc4ccccc4)cc3)c2)cc1C(=O)O [Example 52, 5-(3-((4-((Benzyloxy)methyl)phenyl)carbamoyl)-4-fluorophenyl)-2-methylnicotinic acid] |
| < 1000 | Cc1ncc(-c2cccc(C(=O)Nc3ccc(COCc4ccccc4)c(F)c3)c2)cc1C(=O)O [Example 56, 5-[3-[[4-(Benzyloxymethyl)-3-fluoro-phenyl]carbamoyl]phenyl]-2-methyl-pyridine-3-carboxylic acid] |
| 1000 to 10000 | Cc1ncc(-c2cc(C(=O)Nc3ccc(COC4CC4)c(F)c3)ccn2)cc1C(=O)O [Example 78, 5-[4-[[4-(Cyclopropoxymethyl)-3-fluoro-phenyl]carbamoyl]-2-pyridyl]-2-methyl-pyridine-3-carboxylic acid] |
| < 1000 | Cc1ncc(-c2cccc(C(=O)Nc3ccc(COCc4ccccc4)cc3)c2)nc1C(=O)O [Example 68, 6-[3-[[4-(Benzyloxymethyl)phenyl]carbamoyl]phenyl]-3-methyl-pyrazine-2-carboxylic acid] |
| 1000 to 10000 | Cc1ncc(-c2nccc(C(=O)Nc3ccc(OCCc4ccccc4)cc3)n2)cc1C(=O)O [Example 55, 2-Methyl-5-(4-((4-phenethoxyphenyl)carbamoyl)pyrimidin-2-yl)nicotinic acid] |
| < 1000 | COc1ccc(COCc2ccc(NC(=O)c3cccc(-c4cnc(C)c(C(=O)O)c4)c3)cc2F)cc1 [Example 63, 5-[3-[[3-Fluoro-4-[(4-methoxyphenyl)methoxymethyl]phenyl]carbamoyl]phenyl]-2-methyl-pyridine-3-carboxylic acid] |
| 1000 to 10000 | Cc1ncc(-c2cc(C(=O)Nc3ccc(OCC4CC4)c(F)c3)ccn2)cc1C(=O)O [Example 79, 5-[4-[[4-(Cyclopropylmethoxy)-3-fluoro-phenyl]carbamoyl]-2-pyridyl]-2-methyl-pyridine-3-carboxylic acid] |
| < 1000 | Cc1ncc(-c2cccc(C(=O)Nc3ccc(OCCc4ccccc4)cc3)c2)nc1C(=O)O [Example 10, 3-Methyl-6-(3-((4-phenethoxyphenyl)carbamoyl)phenyl)pyrazine-2-carboxylic acid] |
| < 1000 | Cc1ncc(-c2ccc(F)c(C(=O)Nc3ccc(COCC4CC4)c(F)c3)c2)cc1C(=O)O [Example 88, 5-[3-[[4-(Cyclopropylmethoxymethyl)-3-fluoro-phenyl]carbamoyl]-4-fluoro-phenyl]-2-methyl-pyridine-3-carboxylic acid] |
| < 1000 | Cc1ncc(-c2cc(C(=O)Nc3ccc(OCCc4ccccc4)cc3)ccn2)cc1C(=O)O [Example 53, 6′-Methyl-4-((4-phenethoxyphenyl)carbamoyl)-[2,3′-bipyridine]-5′-carboxylic acid] |
| < 1000 | O=C(Nc1ccc(OCCc2ccccc2)cc1)c1cccc(-c2cnc(N3CCOCC3)c(C(=O)O)c2)c1 [Example 33, 2-Morpholino-5-(3-((4-phenethoxyphenyl)carbamoyl)phenyl)nicotinic acid] |
| 1000 to 10000 | Cc1ncc(-c2cc(C(=O)Nc3ccc(OCC4CC4)cc3)ccn2)cc1C(=O)O [Example 72, 5-[4-[[4-(Cyclopropylmethoxy)phenyl]carbamoyl]-2-pyridyl]-2-methyl-pyridine-3-carboxylic acid] |
| 1000 to 10000 | O=C(Nc1ccc(OCCc2ccccc2)cc1)c1cccc(-c2ccncc2C(=O)O)c1 [Example 26, 4-(3-((4-Phenethoxyphenyl)carbamoyl)phenyl)nicotinic acid] |
| < 1000 | Cc1ncc(-c2cc(C(=O)Nc3ccc(COCc4ccccc4)cc3)ccc2F)cc1C(=O)O [Example 85, 5-[5-[[4-(Benzyloxymethyl)phenyl]carbamoyl]-2-fluoro-phenyl]-2-methyl-pyridine-3-carboxylic acid] |

| IC50 [nM] | SMILES |
| --- | --- |
| 1000 to 10000 | O=C(Nc1ccc(OCCc2ccccc2)cc1)c1cccc(-c2cnc(CN3CCOCC3)c(C(=O)O)c2)c1 [Example 32, 2-(Morpholinomethyl)-5-(3-((4-phenethoxyphenyl)carbamoyl)phenyl)nicotinic acid] |
| 1000 to 10000 | Cc1ncc(-c2cccc(C(=O)Nc3ccc(OCC4CC4)cc3)c2)cc1C(=O)O [Example 41, 5-(3-((4-(Cyclopropylmethoxy)phenyl)carbamoyl)phenyl)-2-methylnicotinic acid] |
| 1000 to 10000 | COc1ccc(S(=O)(=O)Cc2ccc(NC(=O)c3cccc(-c4cnc(C)c(C(=O)O)c4)c3)cc2)cc1 [Example 99, 5-[3-[[4-[(4-Methoxyphenyl)sulfonylmethyl]phenyl]carbamoyl]phenyl]-2-methyl-pyridine-3-carboxylic acid] |
| < 1000 | Nc1ncc(-c2cccc(C(=O)Nc3ccc(OCCc4ccccc4)cc3)c2)nc1C(=O)O [Example 9, 3-Amino-6-(3-((4-phenethoxyphenyl)carbamoyl)phenyl)pyrazine-2-carboxylic acid] |
| < 1000 | Cc1ncc(-c2ccc(F)c(C(=O)Nc3ccc(OCC4CC4)c(F)c3)c2)cc1C(=O)O [Example 89, 5-[3-[[4-(Cyclopropylmethoxy)-3-fluoro-phenyl]carbamoyl]-4-fluoro-phenyl]-2-methyl-pyridine-3-carboxylic acid] |
| < 1000 | Cc1ncc(-c2cccc(C(=O)Nc3ccc(OCCc4ccccc4)cc3)c2)cc1C(=O)O [Example 15, 2-Methyl-5-(3-((4-phenethoxyphenyl)carbamoyl)phenyl)nicotinic acid] |
| < 1000 | O=C(Nc1ccc(OCCc2ccccc2)cc1)c1cccc(-c2cnc(Cl)c(C(=O)O)c2)c1 [Example 19, 2-Chloro-5-(3-((4-phenethoxyphenyl)carbamoyl)phenyl)nicotinic acid] |
| < 1000 | Cc1ncc(-c2cc(C(=O)Nc3ccc(COCc4ccccc4)cc3)ccn2)cc1C(=O)O [Example 74, 5-[4-[[4-(Benzyloxymethyl)phenyl]carbamoyl]-2-pyridyl]-2-methyl-pyridine-3-carboxylic acid] |
| < 1000 | O=C(O)c1cnnc(-c2cccc(C(=O)Nc3ccc(COCc4ccccc4)cc3)c2)c1 [Example 67, 6-[3-[[4-(Benzyloxymethyl)phenyl]carbamoyl]phenyl]pyridazine-4-carboxylic acid] |
| < 1000 | Cc1ncc(-c2cc(C(=O)Nc3ccc(COCc4ccccc4)cc3)c(F)cn2)cc1C(=O)O [Example 76, 5-[4-[[4-(Benzyloxymethyl)phenyl]carbamoyl]-5-fluoro-2-pyridyl]-2-methyl-pyridine-3-carboxylic acid] |
| < 1000 | COc1ccc(-c2cnc(C)c(C(=O)O)c2)cc1C(=O)Nc1ccc(COCc2ccccc2)cc1 [Example 80, 5-[3-[[4-(Benzyloxymethyl)phenyl]carbamoyl]-4-methoxy-phenyl]-2-methyl-pyridine-3-carboxylic acid] |
| < 1000 | Cc1ncc(-c2cccc(C(=O)Nc3ccc(CS(=O)(=O)c4ccc(Cl)cc4)cc3)c2)cc1C(=O)O [Example 96, 5-[3-[[4-[(4-Chlorophenyl)sulfonylmethyl]phenyl]carbamoyl]phenyl]-2-methyl-pyridine-3-carboxylic acid] |
| 1000 to 10000 | O=C(Nc1ccc(OCCc2ccccc2)cc1)c1cccc(-c2ccc(C(=O)O)nc2)c1 [Example 23, 5-(3-((4-Phenethoxyphenyl)carbamoyl)phenyl)picolinic acid] |
| 1000 to 10000 | Cc1ncc(-c2cncc(C(=O)Nc3ccc(OCCc4ccccc4)cc3)n2)cc1C(=O)O [Example 54, 2-Methyl-5-(6-((4-phenethoxyphenyl)carbamoyl)pyrazin-2-yl)nicotinic acid] |
| < 1000 | Cc1ccc(C(=O)O)nc1-c1cccc(C(=O)Nc2ccc(OCCc3ccccc3)cc2)c1 [Example 24, 5-Methyl-6-(3-((4-phenethoxyphenyl)carbamoyl)phenyl)picolinic acid] |
| < 1000 | O=C(O)c1ccc(-c2cccc(C(=O)Nc3ccc(OCCc4ccccc4)cc3)c2)nc1 [Example 20, 6-(3-((4-Phenethoxyphenyl)carbamoyl)phenyl)nicotinic acid] |
| 1000 to 10000 | Cc1ccc(-c2cnc(C)c(C(=O)O)c2)cc1C(=O)Nc1ccc(COCc2ccccc2)cc1 [Example 82, 5-[3-[[4-(Benzyloxymethyl)phenyl]carbamoyl]-4-methyl-phenyl]-2-methyl-pyridine-3-carboxylic acid] |
